Experimental data: patent publication US20230113037A1 (Bayer Aktiengesellschaft, priority 2019, published 2023)

Tests used:
AHR [1] = molecular target: T1, AHR (Homo sapiens, UniProt P35869); experiment: In vitro assay 1: antagonism in human cell line (AHR transactivation, firefly luciferase reporter, kynurenic acid prestimulated); type: cell-based; details: AHR Antagonism Human IC50 [M]
T1 construct: U87 MG glioblastoma cells (ATCC #HTB-14) endogenously expressing AHR; endogenous in cells; host or cells: U87 MG glioblastoma cells (ATCC #HTB-14)
T1 sequence (P35869 11-848): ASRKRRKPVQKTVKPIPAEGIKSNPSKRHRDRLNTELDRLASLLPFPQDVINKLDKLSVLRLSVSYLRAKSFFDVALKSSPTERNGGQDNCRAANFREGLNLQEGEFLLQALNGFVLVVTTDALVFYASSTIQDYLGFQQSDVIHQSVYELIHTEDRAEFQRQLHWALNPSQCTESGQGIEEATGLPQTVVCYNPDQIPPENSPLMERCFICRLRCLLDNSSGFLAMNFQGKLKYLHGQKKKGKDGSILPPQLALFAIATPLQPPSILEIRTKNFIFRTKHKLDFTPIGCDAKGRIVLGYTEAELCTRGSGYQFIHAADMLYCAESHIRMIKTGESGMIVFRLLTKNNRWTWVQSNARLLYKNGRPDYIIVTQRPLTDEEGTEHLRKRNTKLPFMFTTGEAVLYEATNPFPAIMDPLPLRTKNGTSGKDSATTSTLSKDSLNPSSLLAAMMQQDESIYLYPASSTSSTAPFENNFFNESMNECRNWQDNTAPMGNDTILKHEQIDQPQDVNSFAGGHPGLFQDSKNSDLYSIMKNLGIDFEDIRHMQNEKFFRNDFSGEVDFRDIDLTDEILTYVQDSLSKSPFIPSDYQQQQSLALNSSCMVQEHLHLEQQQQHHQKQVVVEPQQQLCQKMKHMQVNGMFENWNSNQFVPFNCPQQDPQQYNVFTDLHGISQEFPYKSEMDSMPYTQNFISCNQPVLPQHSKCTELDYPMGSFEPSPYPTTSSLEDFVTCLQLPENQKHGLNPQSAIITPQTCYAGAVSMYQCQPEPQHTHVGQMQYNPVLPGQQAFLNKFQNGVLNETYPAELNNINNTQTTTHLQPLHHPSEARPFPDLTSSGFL
Summary of the method: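 U87 MG + DRE-firefly/constitutive-Renilla stable reporters; kynurenic acid prestim; dual-luc read; Renilla = tox; normalized vs pos/neg controls (pos: 150 μM KYNA + 5 μM staurosporine).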

AHR [2] = molecular target: T2, AHR (Mus musculus, UniProt P30561); experiment: In vitro assay 3: antagonism in mouse cell line (AHR transactivation, firefly luciferase reporter, kynurenic acid prestimulated); type: cell-based; details: mouse Hepa 1c1c7 cells, 200 μM kynurenic acid, 20 hours, read-out: AHR Antagonism Mouse IC50
T2 sequence (P30561 1-848 P471L/N533S/M589L): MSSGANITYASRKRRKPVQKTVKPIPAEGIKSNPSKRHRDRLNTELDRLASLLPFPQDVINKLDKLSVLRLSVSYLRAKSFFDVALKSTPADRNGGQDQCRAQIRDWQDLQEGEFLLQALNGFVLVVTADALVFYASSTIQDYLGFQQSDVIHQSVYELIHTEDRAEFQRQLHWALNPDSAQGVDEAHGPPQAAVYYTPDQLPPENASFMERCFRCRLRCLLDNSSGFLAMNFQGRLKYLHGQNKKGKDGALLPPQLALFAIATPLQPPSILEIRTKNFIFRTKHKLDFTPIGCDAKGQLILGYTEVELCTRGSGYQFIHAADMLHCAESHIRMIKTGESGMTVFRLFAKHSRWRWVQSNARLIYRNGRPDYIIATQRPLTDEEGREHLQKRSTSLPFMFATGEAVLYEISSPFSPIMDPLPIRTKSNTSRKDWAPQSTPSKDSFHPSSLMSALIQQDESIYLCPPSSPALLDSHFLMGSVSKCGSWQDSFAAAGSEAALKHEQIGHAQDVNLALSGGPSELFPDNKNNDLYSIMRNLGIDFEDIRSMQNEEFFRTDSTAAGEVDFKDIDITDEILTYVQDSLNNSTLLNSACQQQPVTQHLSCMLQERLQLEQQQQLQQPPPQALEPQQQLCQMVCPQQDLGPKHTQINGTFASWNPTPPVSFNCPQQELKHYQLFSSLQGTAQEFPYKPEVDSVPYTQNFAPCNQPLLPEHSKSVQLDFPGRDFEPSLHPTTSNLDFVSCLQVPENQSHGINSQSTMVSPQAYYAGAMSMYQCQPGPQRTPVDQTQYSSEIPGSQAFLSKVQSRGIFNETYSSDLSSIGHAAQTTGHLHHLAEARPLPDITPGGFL
Summary of the method: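 Mouse cells stably carrying a DRE-driven, AHR-inducible firefly luciferase reporter were prestimulated with the endogenous agonist kynurenic acid before compound addition. Luciferase activity was measured by luminescence and normalized to positive and negative controls, with cells lacking kynurenic acid serving as full-inhibition control. Repeat tests are reported as mean or median.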

Row | SMILES | IC50 (AHR [1]) [M] | IC50 (AHR [2]) [nM]
1 | Cn1cc(-c2nc3c4cccc(Cl)c4nc(N[C@@H]4CNCCNC4=O)n3n2)cn1 [Example 253, (6R)-6-{[7-Chloro-2-(1-methyl-1H-pyrazol-4-yl)[1,2,4]triazolo[1,5-c]quinazolin-5-yl]amino}-1,4-diazepan-5-one] | 2.71e-08 | 36.8
2 | O=C1NCCNC[C@H]1Nc1nc2ccccc2c2nc(-c3ccc(Br)cc3Cl)nn12 [Example 255, (6R)-6-{[2-(4-bromo-2-chlorophenyl)[1,2,4]triazolo[1,5-c]quinazolin-5-yl]amino}-1,4-diazepan-5-one] | 4.98e-08 | 5.1
3 | Cn1ccc(-c2nc3c4ccccc4nc(N[C@@H]4CNCCNC4=O)n3n2)n1 [Example 257, (6R)-6-{[2-(1-methyl-1H-pyrazol-3-yl)[1,2,4]triazolo[1,5-c]quinazolin-5-yl]amino}-1,4-diazepan-5-one] | 6.29e-06 | 12100
4 | O=C1NCCNC[C@H]1Nc1nc2ccccc2c2nc(-c3ccco3)nn12 [Example 258, (6R)-6-{[2-(furan-2-yl)[1,2,4]triazolo[1,5-c]quinazolin-5-yl]amino}-1,4-diazepan-5-one] | 7.15e-07 | 398
5 | O=C1NCCNC[C@H]1Nc1nc2ccccc2c2nc(-c3cccc(F)c3)nn12 [Example 261, (6R)-6-{[2-(3-fluorophenyl)[1,2,4]triazolo[1,5-c]quinazolin-5-yl]amino}-1,4-diazepan-5-one] | 7.39e-08 | 46.6
6 | O=C1NCCNC[C@H]1Nc1nc2ccccc2c2nc(-c3ccccc3C(F)(F)F)nn12 [Example 262, (6R)-6-({2-[2-(trifluoromethyl)phenyl][1,2,4]triazolo[1,5-c]quinazolin-5-yl}amino)-1,4-diazepan-5-one] | 1.37e-06 | 85.7
7 | O=C1NCCNC[C@H]1Nc1nc2ccccc2c2nc(-c3cccc(Cl)c3Cl)nn12 [Example 263, (6R)-6-{[2-(2,3-dichlorophenyl)[1,2,4]triazolo[1,5-c]quinazolin-5-yl]amino}-1,4-diazepan-5-one] | 3.86e-07 | 8.93
8 | O=C1NCCNC[C@H]1Nc1nc2ccccc2c2nc(-c3cn[nH]c3)nn12 [Example 264, (6R)-6-{[2-(1H-pyrazol-4-yl)[1,2,4]triazolo[1,5-c]quinazolin-5-yl]amino}-1,4-diazepan-5-one] | > 2e-05 | > 20000
9 | COc1ccc(-c2nc3c4cccc(OC)c4nc(N[C@@H]4CNCCNC4=O)n3n2)cc1 [Example 265, (6R)-6-{[7-methoxy-2-(4-methoxyphenyl)[1,2,4]triazolo[1,5-c]quinazolin-5-yl]amino}-1,4-diazepan-5-one] | 2.38e-07 | 373
10 | O=C1NCCNC[C@H]1Nc1nc2c(Br)cccc2c2nc(-c3ccccc3OC(F)(F)F)nn12 [Example 266, (6R)-6-({7-bromo-2-[2-(trifluoromethoxy)phenyl][1,2,4]triazolo[1,5-c]quinazolin-5-yl}amino)-1,4-diazepan-5-one] | 3.29e-09 | 2.17
11 | O=C1NCCNC[C@H]1Nc1nc2c(Br)cccc2c2nc(-c3cccc(F)c3)nn12 [Example 268, (6R)-6-{[7-bromo-2-(3-fluorophenyl)[1,2,4]triazolo[1,5-c]quinazolin-5-yl]amino}-1,4-diazepan-5-one] | 6.36e-09 | 3.07
12 | COc1ccc(-c2nc3c4cccc(Br)c4nc(N[C@@H]4CNCCNC4=O)n3n2)cc1 [Example 270, (6R)-6-{[7-bromo-2-(4-methoxyphenyl)[1,2,4]triazolo[1,5-c]quinazolin-5-yl]amino}-1,4-diazepan-5-one] | 7.93e-10 | 0.946
13 | Cc1cccc2c1nc(N[C@@H]1CNCCNC1=O)n1nc(-c3cnn(C)c3)nc21 [Example 271, (6R)-6-{[7-methyl-2-(1-methyl-1H-pyrazol-4-yl)[1,2,4]triazolo[1,5-c]quinazolin-5-yl]amino}-1,4-diazepan-5-one] | 7.02e-07 | 13900
14 | COc1ccc(-c2nc3c4ccc(C(F)(F)F)cc4nc(N[C@@H]4CNCCNC4=O)n3n2)cc1 [Example 273, (6R)-6-{[2-(4-methoxyphenyl)-8-(trifluoromethyl)[1,2,4]triazolo[1,5-c]quinazolin-5-yl]amino}-1,4-diazepan-5-one] | > 2e-05 | 4590
15 | COc1ccc(-c2nc3c4ccc(C)cc4nc(N[C@@H]4CNCCNC4=O)n3n2)cc1 [Example 274, (6R)-6-{[2-(4-methoxyphenyl)-8-methyl[1,2,4]triazolo[1,5-c]quinazolin-5-yl]amino}-1,4-diazepan-5-one] | 1.09e-06 | 2150
16 | COc1ccc(-c2nc3c4ccc(F)cc4nc(N[C@@H]4CNCCNC4=O)n3n2)cc1 [Example 276, (6R)-6-{[8-fluoro-2-(4-methoxyphenyl)[1,2,4]triazolo[1,5-c]quinazolin-5-yl]amino}-1,4-diazepan-5-one] | 1.45e-08 | 16.4
17 | COc1ccc(-c2nc3c4cc(F)ccc4nc(N[C@@H]4CNCCNC4=O)n3n2)cc1 [Example 277, (6R)-6-{[9-fluoro-2-(4-methoxyphenyl)[1,2,4]triazolo[1,5-c]quinazolin-5-yl]amino}-1,4-diazepan-5-one] | > 2e-05 | 15.1
18 | COc1ccc(-c2nc3c4cc(Cl)ccc4nc(N[C@@H]4CNCCNC4=O)n3n2)cc1 [Example 278, (6R)-6-{[9-chloro-2-(4-methoxyphenyl)[1,2,4]triazolo[1,5-c]quinazolin-5-yl]amino}-1,4-diazepan-5-one] | 3.72e-07 | 51
19 | COc1ccc(-c2nc3c4cc(OC)ccc4nc(N[C@@H]4CNCCNC4=O)n3n2)cc1 [Example 279, (6R)-6-{[9-methoxy-2-(4-methoxyphenyl)[1,2,4]triazolo[1,5-c]quinazolin-5-yl]amino}-1,4-diazepan-5-one] | 3.08e-07 | 180
20 | O=C1NCCNCC1Nc1nc2cccc(Cl)c2c2nc(-c3cccc(F)c3)nn12 (stereo not shown) [Example 284, 6-{[10-chloro-2-(3-fluorophenyl)[1,2,4]triazolo[1,5-c]quinazolin-5-yl]amino}-1,4-diazepan-5-one] | > 2e-05 | 277
21 | COc1ccc(-c2nc3c4c(C(F)(F)F)cccc4nc(N[C@@H]4CNCCNC4=O)n3n2)cc1 [Example 285, (6R)-6-{[2-(4-methoxyphenyl)-10-(trifluoromethyl)[1,2,4]triazolo[1,5-c]quinazolin-5-yl]amino}-1,4-diazepan-5-one] | 1.36e-06 | 625
22 | Cn1cc(-c2nc3c4c(C(F)(F)F)cccc4nc(N[C@@H]4CNCCNC4=O)n3n2)cn1 [Example 286, (6R)-6-{[2-(1-methyl-1H-pyrazol-4-yl)-10-(trifluoromethyl)[1,2,4]triazolo[1,5-c]quinazolin-5-yl]amino}-1,4-diazepan-5-one] | 2.78e-06 | 3350
23 | O=C1NCCNC[C@H]1Nc1nc2cccc(C(F)(F)F)c2c2nc(-c3ccc(F)cc3)nn12 [Example 287, (6R)-6-{[2-(4-fluorophenyl)-10-(trifluoromethyl)[1,2,4]triazolo[1,5-c]quinazolin-5-yl]amino}-1,4-diazepan-5-one] | 6.55e-06 | 756
